A value given as a limit tells only on which side of the number the result lay.

The test relates to Plasmodium berghei. Kind of test: Luciferase/luciferin-expressing antifolate-resistant parasites were used to infect a culture of HepG2 cells that were pre-incubated with compounds. Infected hepatocytes emit light due to the luciferase reaction. Assay results are presented as the percent inhibition of light emission compared to control. […]. The test is classed as functional. To be noted: sporozoite; for IC50: read-out: LUCIFERASE INFECTION ASSAY - IC50; for IC90: read-out: LUCIFERASE INFECTION ASSAY - IC90.

The IC50 is the concentration needed to halve the response being measured. One may read the IC90 as the point of the concentration-response curve where the effect stands at 90%. Regarding `O=C(CN1CCN(c2cccc(Cl)c2)CC1)Nc1nccs1`, the IC50 was more than 9.8 µM and the concentration for an effect of 90% (IC90) is more than 9.8 µM.
As for `CC(C)Cc1nc(N2CCN(C(=O)c3ccco3)CC2)c(C#N)c2c1CCCC2`, the IC50 stood at 3.18 µM and the 90% effect concentration (IC90) was determined as 3.93 µM.
On to `C[C@H](NC(=O)[C@@H]1CSC2c3ccccc3C(=O)N21)C(=O)NC1CCCCC1` (stereo partly specified), for which the 50% inhibitory concentration (IC50) was more than 8.52 µM and the IC90 was more than 8.52 µM.
In the case of `O=C(O)CCCNC(=O)CCn1nnc2ccccc2c1=O`, the IC50 is more than 10.8 µM and the IC90 is more than 10.8 µM.
With `OCCNCCNCc1c(OCc2ccc(F)cc2)ccc2ccccc12`, the IC50 is more than 8.96 µM and the IC90 was more than 8.96 µM.
For the molecule `CCCN1CCc2c(sc3c2c(NCCc2ccccc2)nc2nnnn23)C1`, the 50% inhibitory concentration (IC50) was more than 8.39 µM and the IC90 is more than 8.39 µM.
In the case of `O=c1nc2n(c3ccccc13)CC/C2=C\c1ccc(Cl)cc1`, the IC50 was more than 10.7 µM and the 90% effect concentration (IC90) was more than 10.7 µM.
As to `CCn1c2ccccc2c2cc(CNCCNC(=O)c3nonc3N)ccc21`, the IC50 was more than 8.72 µM and the concentration for an effect of 90% (IC90) is more than 8.72 µM.
On to `NC(=O)c1c(NC(=O)NCc2ccncc2)sc2c1CCCC2`, for which the IC50 is more than 9.99 µM and the concentration for an effect of 90% (IC90) is more than 9.99 µM.
With `O=C(Nc1nonc1-c1cccs1)c1sc2cccc(Cl)c2c1Cl`, the IC50 is 3.26 µM and the IC90 was determined as 4.63 µM.
Consider `Cc1nc(=O)c2c([nH]1)NC(=O)CC2c1ccccc1C` (stereo unspecified), for which the half-inhibitory concentration (IC50) is more than 12.3 µM and the IC90 was more than 12.3 µM.
Take `CC(C)c1ccc(OCC(=O)NC2CCCCCC2)cc1`: the concentration for half-maximal inhibition (IC50) is more than 11.4 µM and the IC90 was more than 11.4 µM.
In the case of `Cn1c(SCC(=O)Nc2cccc(C(=O)O)c2)nnc1-c1cnccn1`, the IC50 is more than 8.91 µM and the 90% effect concentration (IC90) is more than 8.91 µM.
On to `CC(C)c1nc(NCCCN2CCOCC2)c(C#N)c2c1CCCC2`, for which the half-maximal inhibitory concentration (IC50) is more than 9.64 µM and the IC90 is more than 9.64 µM.
In the case of `O=c1c2c([nH]c3c(-c4ccccc4)c(Cc4ccccc4)nn13)CCCC2`, the half-inhibitory concentration (IC50) is more than 9.28 µM and the IC90 was more than 9.28 µM.
Turning to `Cc1ccc2c(Cl)c(C(=O)Nc3nonc3-c3ccccc3)sc2c1`, the IC50 amounted to 7.41 µM and the concentration for an effect of 90% (IC90) was 8.14 µM.
As for `O=C1CC(c2cccc(Cl)c2Cl)c2c([nH]c(-c3ccccc3)nc2=O)N1` (stereo unspecified), the 50% inhibitory concentration (IC50) is more than 8.54 µM and the IC90 was more than 8.54 µM.
For `Nc1c(-c2ccccc2)[nH]c2ccccc12`, the concentration for half-maximal inhibition (IC50) is more than 15.8 µM and the concentration for an effect of 90% (IC90) is more than 15.8 µM.
As for `CN(CCO)C(=O)Nc1sc2c(c1C(N)=O)CCC2`, the IC50 is more than 11.6 µM and the IC90 was more than 11.6 µM.
As for `Cc1n[nH]c(Nc2cc(Cl)cc(Cl)c2)nc1=O`, the IC50 was more than 12.2 µM and the 90% effect concentration (IC90) was more than 12.2 µM.
With `COC(=O)c1c(NC(=O)C(=O)NCCN(C)C)sc2c1CCCC2`, the IC50 is more than 9.34 µM and the IC90 was more than 9.34 µM.
In the case of `COc1ccc(NC(=O)Nc2cccc(C(F)(F)F)c2)cc1`, the IC50 was more than 10.6 µM and the IC90 was more than 10.6 µM.
As for `Cc1n[nH]c(Nc2ccc(Oc3ccccc3)cc2)nc1=O`, the IC50 was more than 11.2 µM and the IC90 was more than 11.2 µM.
Turning to `CCCn1c(-c2ccccc2)nc2c(c(=O)c3ccccc3n2C)c1=O`, the IC50 was determined as 3.2 µM and the IC90 stood at 3.93 µM.
Regarding `C=CCOc1cccc(C(=O)N(C)Cc2nc(-c3ccc(Cl)cc3)no2)c1`, the IC50 was more than 8.6 µM and the IC90 is more than 8.6 µM.
Take `Cc1cccc(-c2nc3c(c(SCCN4CCCC4)n2)COC(C)(C)C3)c1`: the IC50 was more than 8.6 µM and the concentration for an effect of 90% (IC90) was more than 8.6 µM.
With `O=C1CCCC2=C1C(c1ccccc1)C=C1c3cc4c(cc3CCN12)OCCCO4` (stereo unspecified), the IC50 is more than 8.26 µM and the IC90 is more than 8.26 µM.
Turning to `C=C(C)COc1ccc(-c2onc(C)c2-c2ccc(OC)c(OC)c2)c(O)c1`, the concentration for half-maximal inhibition (IC50) worked out at 0.64 µM and the 90% effect concentration (IC90) is 7.35 µM.
Regarding `O=C(Nc1ccc2c[nH]nc2c1)C1=NN(c2ccccc2)C(=O)CC1`, the half-maximal inhibitory concentration (IC50) is more than 9.9 µM and the IC90 was more than 9.9 µM.
Consider `Cc1ccc(O)c(-c2cc(C(=O)Nc3ccccc3C(F)(F)F)[nH]n2)c1`, for which the IC50 is more than 9.13 µM and the IC90 was more than 9.13 µM.
On to `Cc1nc(=O)c2c([nH]1)NC(=O)CC2c1cc(F)ccc1F` (stereo unspecified), for which the half-maximal inhibitory concentration (IC50) was more than 11.3 µM and the concentration for an effect of 90% (IC90) was more than 11.3 µM.
With `Cn1c(=O)oc2ccc(S(=O)(=O)Nc3ccc4c(c3)CCCC4)cc21`, the IC50 is more than 9.21 µM and the IC90 is more than 9.21 µM.
Consider `COc1cc2[nH]c(C(=O)Nc3cccc(C(F)(F)F)c3)cc2c(OC)c1OC`, for which the 50% inhibitory concentration (IC50) came out at 7.63 µM and the concentration for an effect of 90% (IC90) was 8.28 µM.
As to `O=c1nc(Nc2cccc(C(F)(F)F)c2)[nH]nc1Cc1ccccc1`, the IC50 was 1.23 µM and the IC90 was more than 9.53 µM.
For `O=C1CC(c2cccc3ccccc23)c2c([nH]c(-c3ccccc3)nc2=O)N1` (stereo unspecified), in that order: more than 8.98 µM and more than 8.98 µM.
With `CCN(CC)c1ncnc2c1oc1nc(CC(C)C)c3c(c12)CCC3`, the half-maximal inhibitory concentration (IC50) was more than 9.75 µM and the IC90 was more than 9.75 µM.
Consider `CCN1CCN(c2nc(CC(C)C)c3c(c2C#N)CCCC3)CC1`, for which the IC50 is more than 10.1 µM and the IC90 was more than 10.1 µM.
As to `CC(C)(C)c1ccc(C(=O)Nc2nonc2-c2ccc(F)cc2)cc1`, the half-maximal inhibitory concentration (IC50) was more than 9.72 µM and the IC90 is more than 9.72 µM.
For the molecule `O=C(Nc1sc2ccccc2c(=O)c1-c1ccccc1)C1CCCCC1`, the IC50 is more than 9.08 µM and the IC90 was more than 9.08 µM.
Turning to `Cc1ccc(-c2cc(C(=O)Nc3nnc(C(C)C)s3)[nH]n2)c(O)c1C`, the 50% inhibitory concentration (IC50) is more than 9.23 µM and the IC90 is more than 9.23 µM.
On to `COc1ccc(-n2nc(C)c3c2NC(=O)CC3c2ccc(O)cc2)cc1` (stereo unspecified), for which the IC50 is more than 9.45 µM and the IC90 was more than 9.45 µM.
On to `Cc1sc2ncn3nc(-c4ccc(=O)[nH]n4)nc3c2c1C`, for which the concentration for half-maximal inhibition (IC50) was more than 11.1 µM and the concentration for an effect of 90% (IC90) is more than 11.1 µM.
With `CC/C=C1/CC(=O)N(c2ccc(OC(C)=O)cc2)C1=O`, the half-inhibitory concentration (IC50) was more than 12.1 µM and the concentration for an effect of 90% (IC90) was more than 12.1 µM.
Turning to `COc1ccc(CCC(=O)NCc2cc(=O)n(C)c(=O)n2C)cc1`, the 50% inhibitory concentration (IC50) was more than 9.96 µM and the IC90 is more than 9.96 µM.
Regarding `Cn1c(=O)n(C2CCCCC2)c(=O)c2ccccc21`, the half-maximal inhibitory concentration (IC50) was more than 12.8 µM and the IC90 is more than 12.8 µM.
As to `O=c1c2ccccc2sc2nc(-c3ccccc3)n(Cc3ccccc3)c(=O)c12`, the half-inhibitory concentration (IC50) is more than 8.32 µM and the 90% effect concentration (IC90) is more than 8.32 µM.
As for `N#Cc1c(SCc2ccc(F)cc2)nc(N2CCOCC2)c2c1CCCC2`, the IC50 was more than 8.61 µM and the concentration for an effect of 90% (IC90) was more than 8.61 µM.
For the molecule `Cc1cc2oc(C(=O)Nc3nonc3-c3ccc(F)cc3)c(C)c2cc1Cl`, the IC50 is more than 8.55 µM and the IC90 is more than 8.55 µM.
`CC1(C)Cc2c(C#N)c(Nc3ccccc3)nc(NCCCO)c2CO1`: the half-inhibitory concentration (IC50) was more than 9.36 µM and the 90% effect concentration (IC90) was more than 9.36 µM.
Turning to `COc1ccc(Cc2n[nH]c(Nc3cccc(Cl)c3)nc2=O)cc1`, the half-inhibitory concentration (IC50) is 1.11 µM and the concentration for an effect of 90% (IC90) was 1.36 µM.
The corresponding values for `CC(C)Oc1ccccc1Nc1nc(=O)cn[nH]1` are more than 13.4 µM and more than 13.4 µM.
With `C[C@H](NC(=O)c1sc2ccccc2c1Cl)c1nnc2ccccn12`, the IC50 is more than 9.25 µM and the IC90 was more than 9.25 µM.
As to `O=C1C(=O)N(Cc2ccccc2Cl)c2ccc(F)cc21`, the IC50 is more than 11.4 µM and the 90% effect concentration (IC90) is more than 11.4 µM.
